Results on 16 molecules are retold here after patent US10899738B2 (THE REGENTS OF THE UNIVERSITY OF MICHIGAN, priority 2016, dated 2021).

The target of one assay is menin protein (Homo sapiens (Human), UniProt O00255). In words: biochemical. In kind it is binding. To be noted: FP competitive binding; menin protein 4 nM, FAM-MM2 probe 2 nM; read-out: Menin Binding Affinity IC50. In outline:
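Test compounds displaced FAM-MM2 (2 nM) from 4 nM menin after 30 min equilibration at room temperature in PBS buffer containing bovine γ-globulin, 4% DMSO and Triton X-100. Binding was followed by fluorescence polarization. Competition curves were fitted by nonlinear regression to give IC50 and Ki.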

A short description of assay [1]: Cell growth inhibition, CellTiter-Glo Luminescent Cell Viability Assay. In kind it is cell-based. In outline:
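Cells seeded at 2,000/well with serially diluted compound and cultured 4 days at 37 °C, 5% CO2. Viability read by CellTiter-Glo luminescence; IC50 derived from dose-response.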
A general note: ATP-based viability assays read luminescence as a measure of living cells.

The mark [2] stands for this setting: MOLM-13, 96 h, read-out: Cell Growth Inhibition IC50 (μM) MOLM13, MOLM13 cells, 4 days, CellTiter-Glo.
The mark [3] stands for this setting: MV4-11, 96 h, read-out: Cell Growth Inhibition IC50 (μM) MV4, 11, MV4, 11 cells, 4 days, CellTiter-Glo.
The mark [4] stands for this setting: MOLM-13, 96 h, MOLM13 cells, 4 days, CellTiter-Glo, read-out: Cell Growth Inhibition IC50 (μM) MOLM13.
Where [5] appears, read: MV4-11, 96 h, MV4, 11 cells, 4 days, CellTiter-Glo, read-out: Cell Growth Inhibition IC50 (μM) MV4, 11.

Read-outs that look alike come from different tables or passages of the source. Where only a bound is given, the exact number is not on record here.

menin protein, sequence (O00255 whole entry): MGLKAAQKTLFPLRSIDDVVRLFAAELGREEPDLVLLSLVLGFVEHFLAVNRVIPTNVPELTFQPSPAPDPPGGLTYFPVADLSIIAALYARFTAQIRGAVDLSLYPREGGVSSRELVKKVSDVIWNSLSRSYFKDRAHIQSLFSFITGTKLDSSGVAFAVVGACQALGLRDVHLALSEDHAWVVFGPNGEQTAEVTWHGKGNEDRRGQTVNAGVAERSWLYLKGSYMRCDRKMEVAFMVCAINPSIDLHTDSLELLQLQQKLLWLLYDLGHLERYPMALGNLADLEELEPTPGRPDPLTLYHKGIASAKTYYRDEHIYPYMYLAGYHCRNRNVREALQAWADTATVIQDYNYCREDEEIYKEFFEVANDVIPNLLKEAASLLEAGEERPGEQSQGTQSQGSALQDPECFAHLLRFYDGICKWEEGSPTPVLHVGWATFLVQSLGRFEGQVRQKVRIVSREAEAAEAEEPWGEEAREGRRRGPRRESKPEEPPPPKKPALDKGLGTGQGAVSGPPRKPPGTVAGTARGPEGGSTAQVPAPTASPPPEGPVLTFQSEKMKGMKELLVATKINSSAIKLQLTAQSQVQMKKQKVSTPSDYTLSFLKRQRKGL

Consider `CNC(=O)O[C@H]1CCC[C@@H]1C(Cn1ccnc1)(c1ccccc1)C1CCN(CC2CN(c3ccc(S(=O)(=O)c4ccc(C(=O)O)cc4)cc3)C2)CC1` (mixture of isomers) [compound 363, rac-4-((4-(3-((4-(2-(1H-imidazol-1-yl)-1-((1R,2S)-2-((methylcarbamoyl)oxy)cyclopentyl)-1-phenylethyl)piperidin-1-yl)methyl)azetidin-1-yl)phenyl)sulfonyl)benzoic acid], for which the IC50 on menin protein is 27 nM; in assay [1] (read-out: Cell Growth Inhibition IC50 (μM) MOLM13, MOLM13 cells, 4 days, CellTiter-Glo), 2.64 µM; in assay [1] (read-out: Cell Growth Inhibition IC50 (μM) MV4, 11, MV4, 11 cells, 4 days, CellTiter-Glo) it was 0.56 µM.
For the molecule `CNC(=O)O[C@H]1CCC[C@@H]1C(C#N)(c1ccccc1)C1CCN(CC2CN(c3ccc(S(=O)(=O)c4nn(C)cc4Br)cc3)C2)CC1` (mixture of isomers) [compound 228, rac-(1S,2R)-2-((1-((1-(4-((4-bromo-1-methyl-1H-pyrazol-3-yl)sulfonyl)phenyl)azetidin-3-yl)methyl)piperidin-4-yl)(cyano)(phenyl)methyl) cyclopentyl methylcarbamate], the IC50 on menin protein is 4 nM; in assay [1] (setting [2]) it was 0.25 µM; in assay [1] (setting [3]) it was 0.18 µM.
Turning to `CNC(=O)N[C@@H]1CCC[C@H]1C1(C2CCN(CC3CN(c4ccc(S(=O)(=O)c5ccncc5)cc4)C3)CC2)CN(C)Cc2ccccc21` (mixture of isomers) [compound 278, rac-1-methyl-3-((1R,2S)-2-(2-methyl-4-(1-((1-(4-(pyridin-4-ylsulfonyl)phenyl)azetidin-3-yl)methyl)piperidin-4-yl)-1,2,3,4-tetrahydroisoquinolin-4-yl)cyclopentyl)urea], the IC50 at menin protein worked out at 296 nM; in assay [1] (setting [2]), 2.12 µM; in assay [1] (setting [3]), 2.27 µM.
For `CNC(=O)O[C@@H]1CCC[C@H]1C(Cn1ccnc1C)(c1cccc(F)c1)C1CCN(CC2CN(c3ccc(S(=O)(=O)c4cnn(C)c4)cc3)C2)CC1` (mixture of isomers) [compound 410, rac-(1R,2S)-2-(1-(3-fluorophenyl)-2-(2-methyl-1H-imidazol-1-yl)-1-(1-((1-(4-((1-methyl-1H-pyrazol-4-yl)sulfonyl)phenyl)azetidin-3-yl)methyl)piperidin-4-yl)ethyl)cyclopentyl methylcarbamate] the same measures were 49 nM, 3.1 µM and 2.7 µM.
For `COC(=O)N[C@H]1CCC[C@@H]1C(C#N)(c1ccccc1)C1CCN(CC2(F)CN(c3ccc(S(=O)(=O)c4cnn(C)c4)cc3)C2)CC1` (mixture of isomers) [compound 397, methyl rac-((1S,2R)-2-(cyano(1-((3-fluoro-1-(4-((1-methyl-1H-pyrazol-4-yl)sulfonyl)phenyl)azetidin-3-yl)methyl)piperidin-4-yl)(phenyl)methyl)cyclopentyl) carbamate] the same measures were 186 nM, above 10 µM and 4.54 µM.
With `COC(=O)N[C@H]1CCC[C@@H]1C(C#N)(c1ccccc1)C1CCN(CC2CN(c3ccc(S(=O)(=O)C4CC5CCC4C5)cc3)C2)CC1` (mixture of isomers) [compound 396, methyl rac-((1S,2R)-2-((1-((1-(4-(bicyclo[2.2.1]heptan-2-ylsulfonyl)phenyl)azetidin-3-yl)methyl)piperidin-4-yl)(cyano)(phenyl)methyl)cyclopentyl)carbamate], the IC50 at menin protein is 12 nM; in assay [1] (setting [2]) it was 1.46 µM; in assay [1] (setting [3]), 0.46 µM.
On to `CCN1Cc2ccccc2C(C2CCCC2)(C2CCN(CC3CN(c4ccc(S(=O)(=O)c5ccncc5)cc4)C3)CC2)C1` (stereo not drawn) [Cpd. No. 148, 4-cyclopentyl-2-ethyl-4-(1-((1-(4-(pyridin-4-ylsulfonyl)phenyl)azetidin-3-yl)methyl)piperidin-4-yl)-1,2,3,4-tetrahydroisoquinoline], for which the figures for the IC50 (on menin protein; in assay [1] (setting [4]); in assay [1] (setting [5])) were 6 nM, 1.5 ± 0.9 µM and 0.81 ± 0.364 µM, respectively.
For `CCN1Cc2ccccc2C(C2CCCC2)(C2CCN(CC3CN(c4ccc(S(=O)(=O)c5ccncc5C)cc4)C3)CC2)C1` (stereo not drawn) [compound 153, 4-cyclopentyl-2-ethyl-4-(1-((1-(4-((3-methylpyridin-4-yl)sulfonyl)phenyl)azetidin-3-yl)methyl)piperidin-4-yl)-1,2,3,4-tetrahydroisoquinoline] the same measures were 7 nM, 0.77 µM and 0.79 µM.
For the molecule `CCN1Cc2ccccc2C(C2CCCC2)(C2CCN(CC3CN(c4ccc(S(=O)(=O)CC5CC5)cc4)C3)CC2)C1` (stereo not drawn) [compound 143, 4-cyclopentyl-4-(1-((1-(4-((cyclopropylmethyl)sulfonyl)phenyl)azetidin-3-yl)methyl)piperidin-4-yl)-2-ethyl-1,2,3,4-tetrahydroisoquinoline], the IC50 at menin protein was determined as 28 nM; in assay [1] (setting [4]), 3.4 ± 0.5 µM; in assay [1] (setting [5]), 1.2 ± 1 µM.
Turning to `O=S(=O)(c1ccccc1)c1ccc(N2CC(CN3CCC(C4(C5CCCC5)NCCc5ccccc54)CC3)C2)cc1` (stereo not drawn) [compound 149, 1-cyclopentyl-1-(1-((1-(4-(phenylsulfonyl)phenyl)azetidin-3-yl)methyl)piperidin-4-yl)-1,2,3,4-tetrahydroisoquinoline], the IC50 at menin protein came out at 12 nM; in assay [1] (setting [4]), 0.331 µM; in assay [1] (setting [5]) it was 0.493 µM.
The like results for `CN1Cc2ccccc2C(C2CCCC2)(C2CCN(CC3CN(c4ccc(C#N)cc4)C3)CC2)C1` (stereo not drawn) [compound 45, 4-(3-((4-(4-cyclopentyl-2-methyl-1,2,3,4-tetrahydroisoquinolin-4-yl)piperidin-1-yl)methyl)azetidin-1-yl)benzonitrile] were, in that order, 27 nM, 5 µM and 0.845 ± 0.436 µM.
In the case of `CNC(=O)O[C@H]1CCC[C@@H]1C(Cn1ccnc1C)(c1ccccc1)C1CCN(CC2CN(c3ccc(C#N)cc3)C2)CC1` (mixture of isomers) [compound 406, rac-(1S,2R)-2-(1-(1-((1-(4-cyanophenyl)azetidin-3-yl)methyl)piperidin-4-yl)-2-(2-methyl-1H-imidazol-1-yl)-1-phenylethyl)cyclopentyl methylcarbamate], the IC50 at menin protein came to 3 nM; in assay [1] (setting [2]), 0.009 ± 0.0004 µM; in assay [1] (setting [3]), 0.004 ± 0.002 µM.
For `COC(=O)N[C@H]1CCC[C@@H]1C(C#N)(c1ccccc1)C1CCN(CC2CN(c3ccc(S(=O)(=O)c4ccc(C(=O)O)cc4)cc3)C2)CC1` (mixture of isomers) [compound 351, rac-4-((4-(3-((4-(cyano((1R,2S)-2-((methoxycarbonyl)amino)cyclopentyl)(phenyl)methyl)piperidin-1-yl)methyl)azetidin-1-yl)phenyl)sulfonyl)benzoic acid] the same measures were 15 nM, 16.1 µM and 3.02 µM.
With `CCN1Cc2ccccc2C(C2CCCC2)(C2CCN(CC3CN(c4ccc(S(=O)(=O)c5ccnc(C(F)(F)F)c5)cc4)C3)CC2)C1` (stereo not drawn) [compound 157, 4-cyclopentyl-2-ethyl-4-(1-((1-(4-((2-(trifluoromethyl)pyridin-4-yl)sulfonyl)phenyl)azetidin-3-yl)methyl)piperidin-4-yl)-1,2,3,4-tetrahydroisoquinoline], the values for the IC50 (on menin protein; in assay [1] (setting [4]); in assay [1] (setting [5])) were 16 nM, 4.4 µM and 1.8 µM, respectively.
Consider `N#Cc1ccc(N2CC(CN3CCC(C4(C5CCCC5)CNCc5ccccc54)CC3)C2)cc1` (stereo not drawn) [compound 43, 4-(3-((4-(4-cyclopentyl-1,2,3,4-tetrahydroisoquinolin-4-yl)piperidin-1-yl)methyl)azetidin-1-yl)benzonitrile], for which the half-maximal inhibitory concentration (IC50) is 26 nM on menin protein, 2.1 µM in assay [1] (setting [4]) and 0.896 ± 0.056 µM in assay [1] (setting [5]).
The like results for `CCN1Cc2ccccc2C(C2CCCC2)(C2CCN(CC3CN(c4ccc(S(=O)(=O)c5ccccc5)cc4)C3)CC2)C1` (stereo not drawn) [compound 147, 4-cyclopentyl-2-ethyl-4-(1-((1-(4-(phenylsulfonyl)phenyl)azetidin-3-yl)methyl)piperidin-4-yl)-1,2,3,4-tetrahydroisoquinoline] were, in that order, 9 nM, 1.6 ± 0.8 µM and 0.956 ± 0.727 µM.

What is called IC50 is the concentration that inhibits the measured activity by half.
